Measured values as given in patent publication US20080113042A1, “PHARMACEUTICAL COMPOSITION AND METHOD FOR CANCER TREATMENT BASED ON COMBINATIONAL USE OF CONVENTIONAL ANTICANCER AGENTS AND GERANIUM OIL OR COMPOUNDS THEREOF” (priority 2006, published 2008).
≈ marks a conversion by molar mass, not a printed value.

How the values were obtained:
[1] = system: A-549; assay: In vitro cytotoxicity, MTT assay; assay type: cell-based; details: Homo sapiens, A549, A-549 (lung), 48 hours
[2] = system: NCI-H1437; assay: In vitro cytotoxicity, MTT assay; assay type: cell-based; details: Homo sapiens, NCI-H1437 (lung), 48 hours
[3] = system: NCI-H838; assay: In vitro cytotoxicity, MTT assay; assay type: cell-based; details: Homo sapiens, NCI-H838 (lung), 48 hours
[4] = system: MCF-7; assay: In vitro cytotoxicity, MTT assay; assay type: cell-based; details: Homo sapiens, MCF7, MCF-7 (breast), 48 hours
[5] = system: MDA-MB-231; assay: In vitro cytotoxicity, MTT assay; assay type: cell-based; details: Homo sapiens, MDA-MB-231 (breast), 48 hours
[6] = system: SK-OV-3; assay: In vitro cytotoxicity, MTT assay; assay type: cell-based; details: Homo sapiens, SK-OV-3 (ovary), 48 hours
[7] = system: subcutaneously implanted solid tumors induced by MDA-MB-231 cells; assay: In vivo antitumor efficacy test, breast tumor-bearing nude mice; details: MDA-MB-231 tumors in nude mice, intraperitoneally twice a week for 28 days; paclitaxel 5 mg/kg alone or paclitaxel 0.2 mg/kg + geraniol 45 mg/kg; p<0.001
Protocol: The antitumor efficacy of composition comprising paclitaxel and geraniol against the subcutaneously implanted solid tumors induced by MDA-MB-231 cells in nude mice was evaluated. Treatments were initiated when the tumors inoculated in nude mice reached a tumor volume of 50-100 mm^3, and this day was designated as Day 1. Mice were divided into 3 different groups consisting of five mice in each group, and administered intraperitoneally with normal saline (control), paclitaxel (5 mg/kg) in normal saline, or composition comprising paclitaxel (0.2 mg/kg) and geraniol (45 mg/kg) twice a week for 28 days. The size of tumor and change of body weight of each mouse were recorded.
The anticancer efficacy of the paclitaxel-geraniol composition was studied in breast tumor-bearing nude mice. […] In the control, mice were injected with normal saline. In Paclitaxel, mice were injected with paclitaxel (5 mg/kg) in normal saline. In the Paclitaxel-geraniol composition, mice were injected with composition comprising paclitaxel (0.2 mg/kg) and geraniol in normal saline.

CC(=O)O[C@H]1C(=O)[C@@]2(C)[C@H]([C@H](OC(=O)c3ccccc3)[C@]3(O)C[C@H](OC(=O)[C@H](O)[C@@H](NC(=O)c4ccccc4)c4ccccc4)C(C)=C1C3(C)C)[C@]1(OC(C)=O)CO[C@@H]1C[C@@H]2O [Paclitaxel, paclitaxel]
IC50 [1]: 20.1 µg/mL (≈ 23.5 µM)
IC50 [2]: 36.8 µg/mL (≈ 43.1 µM)
IC50 [3]: 30.9 µg/mL (≈ 36.2 µM)
IC50 [4]: 46 µg/mL (≈ 53.9 µM)
IC50 [5]: 31.9 µg/mL (≈ 37.4 µM)
IC50 [6]: 56.5 µg/mL (≈ 66.2 µM)
tumor growth (size of tumor) versus control group [7]: significantly suppressed the tumor growth in a similar manner

O=c1[nH]cc(F)c(=O)[nH]1 [Composition 5-FU, Fluorouracil]
IC50 [1]: 5.9 µg/mL (≈ 45.4 µM)
IC50 [2]: > 100 µg/mL
IC50 [3]: 12.1 µg/mL (≈ 93 µM)
IC50 [4]: 38.7 µg/mL (≈ 298 µM)
IC50 [5]: 328 µg/mL (≈ 2520 µM)
IC50 [6]: 66.6 µg/mL (≈ 512 µM)
